Molecules are shown by their SMILES.

The results in this text go back to patent US10519152B2, “Compounds and their use in treating cancer” (AstraZeneca AB, priority 2017, dated 2019).

The target of this test is T1, Estrogen Receptor (ERα) in MCF-7 human ductal carcinoma breast cell line (Homo sapiens, UniProt P03372).
T1 construct: endogenous in cells; host or cells: MCF-7
T1 sequence (P03372 1-595): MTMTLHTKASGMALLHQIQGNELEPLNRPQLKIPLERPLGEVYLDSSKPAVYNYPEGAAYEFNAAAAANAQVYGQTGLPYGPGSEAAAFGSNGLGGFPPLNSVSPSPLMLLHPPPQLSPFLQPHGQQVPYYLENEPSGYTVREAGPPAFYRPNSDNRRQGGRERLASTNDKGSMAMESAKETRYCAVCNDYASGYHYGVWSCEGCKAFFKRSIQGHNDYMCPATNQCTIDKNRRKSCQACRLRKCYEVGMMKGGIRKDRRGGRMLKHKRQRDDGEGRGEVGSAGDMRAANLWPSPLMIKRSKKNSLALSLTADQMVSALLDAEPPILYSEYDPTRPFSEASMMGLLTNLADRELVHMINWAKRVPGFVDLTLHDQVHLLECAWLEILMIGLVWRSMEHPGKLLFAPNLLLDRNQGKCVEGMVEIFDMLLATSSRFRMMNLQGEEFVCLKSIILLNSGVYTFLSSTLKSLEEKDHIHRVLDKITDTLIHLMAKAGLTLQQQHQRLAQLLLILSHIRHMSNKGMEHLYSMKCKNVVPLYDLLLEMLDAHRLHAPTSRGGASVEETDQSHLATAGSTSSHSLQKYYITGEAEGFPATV
As to the kind of experiment: MCF-7 ER degradation assay (cell based immuno-fluorescence). Particulars: MCF-7 cells; for ER degradation ≥ 90% at 0.3 μM: ER degradation by fulvestrant at 0.3 μM is defined as 100%; for DC50: 18-22 hours incubation, 50% reduction of ERα expression, single experiment or average of two or more, read-out: MCF-7 ER degradation IC50. The method, boiled down:
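MCF-7 human ductal carcinoma breast cells were seeded at 3.75×10^4 cells per mL (40 μL per well) in 384 well plates with phenol red free DMEM containing 2 mM L-Glutamine and 5% (v/v) Charcoal/Dextran treated foetal calf serum. After overnight culture, compounds were acoustically dispensed, incubated 18-22 hours, then cells were formaldehyde-fixed and immunostained for ERα.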

In the case of `Cc1ncsc1-c1ccc([C@H](C)NC(=O)[C@@H]2C[C@@H](O)CN2C(=O)[C@@H](NC(=O)COCCOCCOCCOc2cc(F)c([C@@H]3c4[nH]c5ccccc5c4C[C@@H](C)N3CC(C)(C)F)c(F)c2)C(C)(C)C)cc1` [Example 3, (2S,4R)-1-((S)-2-(tert-Butyl)-14-(3,5-difluoro-4-((1R,3R)-2-(2-fluoro-2-methylpropyl)-3-methyl-2,3,4,9-tetrahydro-1H-pyrido[3,4-b]indol-1-yl)phenoxy)-4-oxo-6,9,12-trioxa-3-azatetradecanoyl)-4-hydroxy-N—((S)-1-(4-(4-methylthiazol-5-yl)phenyl)ethyl)pyrrolidine-2-carboxamide], the “ER degradation ≥ 90% at 0.3 μM” value is on record as “••” and the DC50 was 0.3 nM.
The like results for `Cc1ncsc1-c1ccc(CNC(=O)[C@@H]2C[C@@H](O)CN2C(=O)[C@@H](NC(=O)COCc2ccc(OCCOc3cc(F)c([C@@H]4c5[nH]c6ccccc6c5C[C@@H](C)N4CC(C)(C)F)c(F)c3)cc2)C(C)(C)C)cc1` [Example 4, (2S,4R)-1-((S)-2-(2-((4-(2-(3,5-Difluoro-4-((1R,3R)-2-(2-fluoro-2-methylpropyl)-3-methyl-2,3,4,9-tetrahydro-1H-pyrido[3,4-b]indol-1-yl)phenoxy)ethoxy)benzyl)oxy)acetamido)-3,3-dimethylbutanoyl)-4-hydroxy-N-(4-(4-methylthiazol-5-yl)benzyl)pyrrolidine-2-carboxamide] were, in that order, “•” and 2.1 nM.
Take `Cc1ncsc1-c1ccc(CNC(=O)[C@@H]2C[C@@H](O)CN2C(=O)[C@@H](NC(=O)COCCOCCOCCOCC(=O)Nc2ccc([C@@H]3c4[nH]c5ccccc5c4C[C@@H](C)N3CC(C)(C)F)cc2)C(C)(C)C)cc1` [Example 55, N^1-(4-((1R,3R)-2-(2-fluoro-2-methylpropyl)-3-methyl-2,3,4,9-tetrahydro-1H-pyrido[3,4-b]indol-1-yl)phenyl)-N^14—((S)-1-((2S,4R)-4-hydroxy-2-((4-(4-methylthiazol-5-yl)benzyl)carbamoyl)pyrrolidin-1-yl)-3,3-dimethyl-1-oxobutan-2-yl)-3,6,9,12-tetraoxatetradecanediamide, Trifluoroacetic Acid]: the “ER degradation ≥ 90% at 0.3 μM” value is listed as “•” and the DC50 was 1.2 nM.
`Cc1ncsc1-c1ccc(CNC(=O)[C@@H]2C[C@@H](O)CN2C(=O)[C@@H](NC(=O)COCCOCCOCCOCCOCC(=O)Nc2ccc([C@@H]3c4[nH]c5ccccc5c4C[C@@H](C)N3CC(C)(C)F)cc2)C(C)(C)C)cc1` [Example 56, N^1-(4-((1R,3R)-2-(2-fluoro-2-methylpropyl)-3-methyl-2,3,4,9-tetrahydro-1H-pyrido[3,4-b]indol-1-yl)phenyl)-N^17—((S)-1-((2S,4R)-4-hydroxy-2-((4-(4-methylthiazol-5-yl)benzyl)carbamoyl)pyrrolidin-1-yl)-3,3-dimethyl-1-oxobutan-2-yl)-3,6,9,12,15-pentaoxaheptadecanediamide, Trifluoroacetic Acid]: the “ER degradation ≥ 90% at 0.3 μM” value was “••” and the DC50 turned out to be 1.5 nM.
The like results for `Cc1ncsc1-c1ccc(CNC(=O)[C@@H]2C[C@@H](O)CN2C(=O)[C@@H](NC(=O)COCCOCCOCC(=O)Nc2ccc([C@@H]3c4[nH]c5ccccc5c4C[C@@H](C)N3CC(C)(C)F)cc2)C(C)(C)C)cc1` [Example 57, (2S,4R)-1-((S)-2-(tert-butyl)-14-((4-((1R,3R)-2-(2-fluoro-2-methylpropyl)-3-methyl-2,3,4,9-tetrahydro-1H-pyrido[3,4-b]indol-1-yl)phenyl)amino)-4,14-dioxo-6,9,12-trioxa-3-azatetradecanoyl)-4-hydroxy-N-(4-(4-methylthiazol-5-yl)benzyl)pyrrolidine-2-carboxamide, Trifluoroacetic Acid] were, in that order, “•” and 0.9 nM.
Regarding `Cc1ncsc1-c1ccc(CNC(=O)[C@@H]2C[C@@H](O)CN2C(=O)[C@@H](NC(=O)COCCOCCNC(=O)/C=C/c2cc(F)c([C@@H]3c4[nH]c5ccccc5c4C[C@@H](C)N3CC(C)(C)F)c(F)c2)C(C)(C)C)cc1` [Example 58, (2S,4R)-1-((S,E)-2-(tert-butyl)-15-(3,5-difluoro-4-((1R,3R)-2-(2-fluoro-2-methylpropyl)-3-methyl-2,3,4,9-tetrahydro-1H-pyrido[3,4-b]indol-1-yl)phenyl)-4,13-dioxo-6,9-dioxa-3,124-diazapentadec-4-enoyl)-4-hydroxy-N-(4-(4-methylthiazol-5-yl)benzyl)pyrrolidine-2-carboxamide, Trifluoroacetic Acid], the “ER degradation ≥ 90% at 0.3 μM” value was “•” and the DC50 came out at 0.4 nM.
Turning to `Cc1ncsc1-c1ccc(CNC(=O)[C@@H]2C[C@@H](O)CN2C(=O)[C@@H](NC(=O)CCCCNC(=O)/C=C/c2cc(F)c([C@@H]3c4[nH]c5ccccc5c4C[C@@H](C)N3CC(C)(C)F)c(F)c2)C(C)(C)C)cc1` [Example 60, (2S,4R)-1-((S)-2-(5-((E)-3-(3,5-difluoro-4-((1R,3R)-2-(2-fluoro-2-methylpropyl)-3-methyl-2,3,4,9-tetrahydro-1H-pyrido[3,4-b]indol-1-yl)phenyl)acrylamido)pentanamido)-3,3-dimethylbutanoyl)-4-hydroxy-N-(4-(4-methylthiazol-5-yl)benzyl)pyrrolidine-2-carboxamide, Trifluoroacetic Acid], the “ER degradation ≥ 90% at 0.3 μM” value is recorded as “•” and the DC50 was found to be 0.5 nM.
As for `Cc1ncsc1-c1ccc(CNC(=O)[C@@H]2C[C@@H](O)CN2C(=O)[C@@H](NC(=O)COc2ccc(OCCNC(=O)/C=C/c3cc(F)c([C@@H]4c5[nH]c6ccccc6c5C[C@@H](C)N4CC(C)(C)F)c(F)c3)cc2)C(C)(C)C)cc1` [Example 61, (2S,4R)-1-((S)-2-(2-(4-(2-((E)-3-(3,5-difluoro-4-((1R,3R)-2-(2-fluoro-2-methylpropyl)-3-methyl-2,3,4,9-tetrahydro-1H-pyrido[3,4-b]indol-1-yl)phenyl)acrylamido)ethoxy)phenoxy)acetamido)-3,3-dimethylbutanoyl)-4-hydroxy-N-(4-(4-methylthiazol-5-yl)benzyl)pyrrolidine-2-carboxamide, Trifluoroacetic Acid], the “ER degradation ≥ 90% at 0.3 μM” value is recorded as “••” and the DC50 is 0.7 nM.
The like results for `Cc1ncsc1-c1ccc(CNC(=O)[C@@H]2C[C@@H](O)CN2C(=O)[C@@H](NC(=O)COCCNC(=O)/C=C/c2cc(F)c([C@@H]3c4[nH]c5ccccc5c4C[C@@H](C)N3CC(C)(C)F)c(F)c2)C(C)(C)C)cc1` [Example 62, (2S,4R)-1-((S)-2-(2-(2-((E)-3-(3,5-difluoro-4-((1R,3R)-2-(2-fluoro-2-methylpropyl)-3-methyl-2,3,4,9-tetrahydro-1H-pyrido[3,4-b]indol-1-yl)phenyl)acrylamido)ethoxy)acetamido)-3,3-dimethylbutanoyl)-4-hydroxy-N-(4-(4-methylthiazol-5-yl)benzyl)pyrrolidine-2-carboxamide, Trifluoroacetic Acid] were, in that order, “•” and 0.6 nM.
The matching figures for `Cc1ncsc1-c1ccc(CNC(=O)[C@@H]2C[C@@H](O)CN2C(=O)[C@@H](NC(=O)COCCOCCOCCNC(=O)/C=C/c2cc(F)c([C@@H]3c4[nH]c5ccccc5c4C[C@@H](C)N3CC(C)(C)F)c(F)c2)C(C)(C)C)cc1` [Example 63, (2S,4R)-1-((S,E)-2-(tert-butyl)-18-(3,5-difluoro-4-((1R,3R)-2-(2-fluoro-2-methylpropyl)-3-methyl-2,3,4,9-tetrahydro-1H-pyrido[3,4-b]indol-1-yl)phenyl)-4,16-dioxo-6,9,12-trioxa-3,15-diazaoctadec-17-enoyl)-4-hydroxy-N-(4-(4-methylthiazol-5-yl)benzyl)pyrrolidine-2-carboxamide, Trifluoroacetic Acid]: “••” and 0.6 nM.
With `Cc1ncsc1-c1ccc(CNC(=O)[C@@H]2C[C@@H](O)CN2C(=O)[C@@H](NC(=O)c2cnn(CCOCCNC(=O)/C=C/c3cc(F)c([C@@H]4c5[nH]c6ccccc6c5C[C@@H](C)N4CC(C)(C)F)c(F)c3)c2)C(C)(C)C)cc1` [Example 64, 1-(2-(2-((E)-3-(3,5-difluoro-4-((1R,3R)-2-(2-fluoro-2-methylpropyl)-3-methyl-2,3,4,9-tetrahydro-1H-pyrido[3,4-b]indol-1-yl)phenyl)acrylamido)ethoxy)ethyl)-N—((S)-1-((2S,4R)-4-hydroxy-2-((4-(4-methylthiazol-5-yl)benzyl)carbamoyl)pyrrolidin-5-yl)-3,3-dimethyl-1-oxobutan-2-yl)-1H-pyrazole-4-carboxamide, Trifluoroacetic Acid], the “ER degradation ≥ 90% at 0.3 μM” value is on record as “•” and the DC50 stood at 0.5 nM.
